Laboratory results from US20110195911A1, “SYNTHETIC ANALOGS OF THE JUXTAMEMBRANE DOMAIN OF IGF1R AND USES THEREOF” (THE UNITED STATES OF AMERICA,AS REPRESENTED BY THE …, priority 2008, published 2011).
Where a SMILES comes first, the peptide text is derived from it. [ ]: non-standard residue; d: D form. The star is where a group is joined. Palmitoyl = CCCCCCCCCCCCCCCC(=O)*

Columns and labels:
Assay type in all cases: cell-based
[1] = system: MCF-7 breast cancer cells; assay: MTT cell toxicity assay in MCF-7 breast cancer cells; conditions: MCF-7 cells, MTT; for TGI: concentration of total growth inhibition (cytostatic); for growth inhibition / potency in MCF-7 cells (in words): comparison with related peptides
Summary of the method: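 MCF-7 cells seeded in 1% FBS medium, grown 24 h, then exposed to compounds at 0.1, 0.5, 2.5 or 5.0 μM (final, 0.5% FBS) for 48 h. MTT absorbance at 544 nm; growth relative to time-zero and untreated controls gave GI50 (50% growth inhibition) and TGI (zero net growth).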

[2] = system: breast cancer cell lines; assay: Alternative potency assay (MTT, serum-free, IGF-1 added) in cancer cell lines, FIG. 1; conditions: breast cancer cell lines (MCF-7, T47D), IGF-1 10 ng/mL
Protocol: An alternative potency assay was used to test compounds in MCF-7 (breast cancer), T47D (breast cancer), Colo 205 (colon cancer), JM-1 (rat hepatoma), Sk MeI-2 (melanoma), PLC (human hepatoma), and HepG2 (human hepatoma) cells. Cells were suspended at a concentration of approximately 5000 cells per 100 μL of suspension in a 5% FBS RPMI medium. The cells were seeded into 96-count wells and incubated over night. After one day's incubation, the 5% FBS medium was aspirated and replaced with 100 μL of no serum RPMI medium containing 1 mg Bovine Serum Albumin (BSA) per 1 mL RPMI. Various concentrations of the test compounds were prepared by dilution in no-serum medium containing 1 mg BSA/mL. […] Absorbance of the wells at 544 nm was determined by a FLUOstar/POLARstar Galaxy (BMG Lab Technologies GmbH) microplate reader. The activity was calculated from the data using the formula: 100×[(T−T0)/(C−T0)] for T>T0 and 100×[(T−T0)/T0] for T<T0, wherein T0 corresponds to cell density at the time of drug addition, “T” is the optical density of the test well after a 48-h period of exposure to test drug, and “C” is the control optical density. […]

[3] = system: AKT kinase; assay: OMNIA fluorogenic AKT kinase activity assay in lysates of IGF-1-stimulated MCF-7 cells, FIG. 3; conditions: MCF-7 stimulated with IGF-1, inhibitor 0 to 0.5 μM to 2.5 μM
Protocol: AKT Kinase Assay: OMNIA™ fluorogenic AKT Kinase Activity Assay Kit (BioSource through Invitrogen) was used for the measurement of AKT activity in cell lysates. To prepare for the cell treatment, MCF-7 cells were seeded into four wells on a six-well plate in RPMI medium. The medium was supplemented with 10% Fetal Bovine Serum to aid the cell attachment. The cells were incubated for 24 hours, after which time the 10% serum medium was aspirated and replaced with 2 mL of no-serum medium. The cells were starved overnight to stop the signaling from the FBS. On the third day, the medium was replaced and different dilutions of peptide diluted in no-serum medium was added to the four wells. Well 1 & 2 had 0.0 μM of 18, well 3 0.5 and well 4 2.5 μM.
The cells were placed on ice briefly to aid in detaching and then scraped from the bottom of the wells and rinsed with cold PBS. The cells suspended in PBS were collected and centrifuged for 5 minutes at 1500 rpm at 4° C. and the medium aspirated. […]
Master mix AKT fluorogenic substrate was prepared according to the protocol provided by BioSource. […] The fluorescence was excited at 360 nm and read at 485 nm for a length of 60 minutes every thirty seconds on a FLUOstar/POLARstar Galaxy (BMG Lab Technologies GmbH) microplate reader. […]

[4] = final 0.5% FBS, two days with compound

CCCCCCCCCCCCCCCC(=O)N[C@@H](Cc1c[nH]cn1)C(=O)N[C@@H](CCCNC(=N)N)C(=O)N[C@@H](CCCCN)C(=O)N[C@@H](CCCNC(=N)N)C(=O)N[C@@H](CC(N)=O)C(=O)N[C@@H](CC(N)=O)C(=O)N[C@@H](CO)C(=O)N[C@@H](CCCNC(=N)N)C(=O)N[C@@H](CC(C)C)C(=O)NCC(=O)N[C@@H](CC(N)=O)C(=O)NCC(=O)N[C@H](C(=O)N[C@@H](CC(C)C)C(=O)N[C@@H](Cc1ccc(O)cc1)C(N)=O)C(C)C [Peptide 9, Pal-HRKRNNSRLGNGVLY-NH2] (Palmitoyl-HRKRNNSRLGNGVLY-NH2)
GI50 [1, 4]: 1.65 ± 0.1 µM | TGI [1, 4]: >5 µM | growth inhibition / potency in MCF-7 cells (in words) [1]: did not improve the degree of folding or the potency | cell-growth inhibitory properties [2]: significant cell-growth inhibitory properties

CCCCCCCCCCCCCCCC(=O)NCCCC[C@@H](NC(=O)[C@@H](CCCNC(=N)N)NC(=O)[C@@H](CC(N)=O)NC(=O)[C@@H](CC(N)=O)NC(=O)[C@@H](CO)NC(=O)[C@@H](CCCNC(=N)N)NC(=O)[C@@H](CC(C)C)NC(=O)CNC(=O)[C@@H](CC(N)=O)NC(=O)CNC(=O)[C@H](NC(=O)[C@@H](CC(C)C)NC(=O)[C@@H](Cc1ccc(O)cc1)NC(C)=O)C(C)C)C(N)=O [Peptide 18, Ac-YLVGNGLRSNNRK-(ε-Pal)] (Ac-[dY][dL][dV]G[dN]G[dL][dR][dS][dN][dN][dR][dK](Palmitoyl)-NH2; C-terminus assumed)
TGI [1, 4]: 0.4 ± 0.02 µM | growth inhibition / potency in MCF-7 cells (in words) [1]: increased the potency | AKT enzyme activity [3]: decreased to undetectable levels
